Laboratory results from ChEMBL document CHEMBL1201862, “PubChem BioAssay data set” (2004).
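Exposure lasted 48 hours, with cells grown in 96-well plates and compounds tested at five concentrations. The concentration for 50% growth inhibition is given as GI50.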 The source made the active and inactive calls. Cut-off read from the data, not from the text of the source: active = GI50 up to about 1.1 µM and inactive = higher.

Columns and labels:
Assay in all cases: NCI anticancer screen, dose series, 48 h
M14 = test system: M14
ACHN = test system: ACHN
OVCAR-8 = test system: OVCAR-8
PC-3 = test system: PC-3
MDA-MB-231 = test system: MDA-MB-231
TK-10 = test system: TK-10
HL-60 = test system: HL-60
LOX IMVI = test system: LOX IMVI
NCI-H23 = test system: NCI-H23
MOLT-4 = test system: MOLT-4
SF-539 = test system: SF-539
SW-620 = test system: SW-620
OVCAR-3 = test system: OVCAR-3
CAKI-1 = test system: CAKI-1
UO-31 = test system: UO-31
Hs-578T = test system: Hs-578T
MCF7 = test system: MCF7
NCI-H460 = test system: NCI-H460
COLO 205 = test system: COLO 205
SNB-75 = test system: SNB-75

Q: `Cc1ccc2c(c1C)-c1c(ccc(C)c1C)C(=O)C2=O` was tested. Which GI50 (M14) did it give?
A: 0.679 µM (active)

Q: And the GI50 (ACHN)?
A: 0.625 µM (active)

Q: And the GI50 (OVCAR-8)?
A: 0.253 µM (active)

Q: What about the GI50 (PC-3) of the same compound?
A: 0.265 µM (active)

Q: And the GI50 (MDA-MB-231)?
A: 1.62 µM (inactive)

Q: And the GI50 (TK-10)?
A: 1.18 µM (inactive)

Q: And the GI50 (HL-60)?
A: 0.219 µM (active)

Q: And the GI50 (LOX IMVI)?
A: 0.304 µM (active)

Q: What about the GI50 (NCI-H23) of the same compound?
A: 0.53 µM (active)

Q: What about the GI50 (MOLT-4) of the same compound?
A: 0.2 µM (active)

Q: And the GI50 (SF-539)?
A: 0.21 µM (active)

Q: And the GI50 (SW-620)?
A: 0.378 µM (active)

Q: What about the GI50 (OVCAR-3) of the same compound?
A: 0.296 µM (active)

Q: What about the GI50 (CAKI-1) of the same compound?
A: 0.662 µM (active)

Q: And the GI50 (UO-31)?
A: 0.625 µM (active)

Q: And the GI50 (Hs-578T)?
A: 0.342 µM (active)

Q: What about the GI50 (MCF7) of the same compound?
A: 0.21 µM (active)

Q: And the GI50 (NCI-H460)?
A: 0.966 µM (active)

Q: And the GI50 (COLO 205)?
A: 2.02 µM (inactive)

Q: Which GI50 (SNB-75) does the source give for `CC1(CC(=O)OC(C#C[Si](C)(C)C)Cc2ccccc2)OCCO1` (stereo unspecified) here?
A: > 100 µM (inactive)

Q: And the GI50 (M14)?
A: > 100 µM (inactive)

Q: And the GI50 (ACHN)?
A: > 100 µM (inactive)

Q: And the GI50 (OVCAR-8)?
A: > 100 µM (inactive)

Q: And the GI50 (PC-3)?
A: > 100 µM (inactive)

Q: And the GI50 (MDA-MB-231)?
A: > 100 µM (inactive)

Q: What about the GI50 (TK-10) of the same compound?
A: > 100 µM (inactive)

Q: What about the GI50 (HL-60) of the same compound?
A: > 100 µM (inactive)

Q: What about the GI50 (LOX IMVI) of the same compound?
A: > 100 µM (inactive)

Q: What about the GI50 (NCI-H23) of the same compound?
A: > 100 µM (inactive)

Q: And the GI50 (MOLT-4)?
A: > 100 µM (inactive)

Q: What about the GI50 (SF-539) of the same compound?
A: > 100 µM (inactive)

Q: And the GI50 (SW-620)?
A: > 100 µM (inactive)

Q: And the GI50 (CAKI-1)?
A: > 100 µM (inactive)

Q: What about the GI50 (UO-31) of the same compound?
A: > 100 µM (inactive)

Q: And the GI50 (Hs-578T)?
A: > 100 µM (inactive)

Q: What about the GI50 (MCF7) of the same compound?
A: > 100 µM (inactive)

Q: What about the GI50 (COLO 205) of the same compound?
A: > 100 µM (inactive)

Q: For `O=[N+]([O-])c1ccc(NN=C2CN3CCN(C2)c2ccccc23)c([N+](=O)[O-])c1`, which GI50 (M14) is on record?
A: > 100 µM (inactive)

Q: And the GI50 (ACHN)?
A: > 100 µM (inactive)

Q: What about the GI50 (OVCAR-8) of the same compound?
A: > 100 µM (inactive)

Q: And the GI50 (PC-3)?
A: > 100 µM (inactive)

Q: And the GI50 (MDA-MB-231)?
A: > 100 µM (inactive)

Q: What about the GI50 (TK-10) of the same compound?
A: > 100 µM (inactive)

Q: And the GI50 (LOX IMVI)?
A: > 100 µM (inactive)

Q: What about the GI50 (NCI-H23) of the same compound?
A: > 100 µM (inactive)

Q: And the GI50 (MOLT-4)?
A: > 100 µM (inactive)

Q: And the GI50 (SF-539)?
A: > 100 µM (inactive)

Q: What about the GI50 (SW-620) of the same compound?
A: > 100 µM (inactive)

Q: What about the GI50 (OVCAR-3) of the same compound?
A: > 100 µM (inactive)

Q: And the GI50 (CAKI-1)?
A: > 100 µM (inactive)

Q: What about the GI50 (UO-31) of the same compound?
A: > 100 µM (inactive)

Q: And the GI50 (Hs-578T)?
A: > 100 µM (inactive)

Q: What about the GI50 (MCF7) of the same compound?
A: > 100 µM (inactive)

Q: And the GI50 (NCI-H460)?
A: > 100 µM (inactive)

Q: What about the GI50 (COLO 205) of the same compound?
A: > 100 µM (inactive)

Q: Which GI50 (M14) does the source give for `Cc1nnc(N)nc1/C=C\c1ccc(Cl)cc1Cl` here?
A: 29.6 µM (inactive)

Q: And the GI50 (ACHN)?
A: 36.4 µM (inactive)

Q: What about the GI50 (OVCAR-8) of the same compound?
A: 27 µM (inactive)

Q: And the GI50 (PC-3)?
A: 16.9 µM (inactive)

Q: What about the GI50 (MDA-MB-231) of the same compound?
A: 87.5 µM (inactive)

Q: What about the GI50 (TK-10) of the same compound?
A: > 100 µM (inactive)

Q: And the GI50 (HL-60)?
A: 27 µM (inactive)

Q: What about the GI50 (LOX IMVI) of the same compound?
A: 40.2 µM (inactive)

Q: And the GI50 (NCI-H23)?
A: 33.7 µM (inactive)

Q: And the GI50 (MOLT-4)?
A: 41.4 µM (inactive)

Q: What about the GI50 (SW-620) of the same compound?
A: 22 µM (inactive)

Q: And the GI50 (CAKI-1)?
A: > 100 µM (inactive)

Q: What about the GI50 (UO-31) of the same compound?
A: 54.2 µM (inactive)

Q: What about the GI50 (Hs-578T) of the same compound?
A: 29.2 µM (inactive)

Q: And the GI50 (MCF7)?
A: 32.8 µM (inactive)

Q: And the GI50 (NCI-H460)?
A: 19.9 µM (inactive)

Q: What about the GI50 (COLO 205) of the same compound?
A: 20.9 µM (inactive)

Q: For `COc1ccccc1C(=O)N(C)c1ccc(Cl)c(C(=O)OC(C)C)c1`, which GI50 (SNB-75) is on record?
A: 30.7 µM (inactive)

Q: And the GI50 (M14)?
A: 68.9 µM (inactive)

Q: What about the GI50 (ACHN) of the same compound?
A: 84.9 µM (inactive)

Q: What about the GI50 (OVCAR-8) of the same compound?
A: > 100 µM (inactive)

Q: What about the GI50 (PC-3) of the same compound?
A: 31.8 µM (inactive)

Q: What about the GI50 (MDA-MB-231) of the same compound?
A: > 100 µM (inactive)

Q: And the GI50 (TK-10)?
A: 34 µM (inactive)

Q: And the GI50 (LOX IMVI)?
A: 87.3 µM (inactive)

Q: What about the GI50 (NCI-H23) of the same compound?
A: 49.2 µM (inactive)

Q: What about the GI50 (MOLT-4) of the same compound?
A: 39.7 µM (inactive)

Q: What about the GI50 (SF-539) of the same compound?
A: > 100 µM (inactive)

Q: And the GI50 (SW-620)?
A: 46.6 µM (inactive)

Q: What about the GI50 (OVCAR-3) of the same compound?
A: 71.3 µM (inactive)

Q: And the GI50 (CAKI-1)?
A: > 100 µM (inactive)

Q: What about the GI50 (UO-31) of the same compound?
A: 28.7 µM (inactive)

Q: What about the GI50 (Hs-578T) of the same compound?
A: > 100 µM (inactive)

Q: And the GI50 (MCF7)?
A: 62.4 µM (inactive)

Q: And the GI50 (NCI-H460)?
A: 42 µM (inactive)

Q: What about the GI50 (COLO 205) of the same compound?
A: 42.9 µM (inactive)

Q: For `Cc1ccc(Nc2c3c(c(C#N)c4nc5ccccc5n24)CCCC3)cc1`, which GI50 (M14) is on record?
A: 21.6 µM (inactive)

Q: What about the GI50 (ACHN) of the same compound?
A: 21.6 µM (inactive)

Q: What about the GI50 (OVCAR-8) of the same compound?
A: 18 µM (inactive)

Q: What about the GI50 (PC-3) of the same compound?
A: 6.64 µM (inactive)

Q: And the GI50 (MDA-MB-231)?
A: 22.5 µM (inactive)

Q: And the GI50 (TK-10)?
A: 25.5 µM (inactive)

Q: What about the GI50 (HL-60) of the same compound?
A: 5.53 µM (inactive)

Q: What about the GI50 (LOX IMVI) of the same compound?
A: 22.1 µM (inactive)

Q: What about the GI50 (NCI-H23) of the same compound?
A: 22.4 µM (inactive)

Q: And the GI50 (MOLT-4)?
A: 3.73 µM (inactive)

Q: And the GI50 (SF-539)?
A: 19.4 µM (inactive)

Q: And the GI50 (SW-620)?
A: 15.4 µM (inactive)

Q: What about the GI50 (OVCAR-3) of the same compound?
A: 11.1 µM (inactive)

Q: And the GI50 (CAKI-1)?
A: 25.4 µM (inactive)

Q: And the GI50 (UO-31)?
A: 12 µM (inactive)

Q: And the GI50 (Hs-578T)?
A: > 100 µM (inactive)

Q: And the GI50 (MCF7)?
A: 9.89 µM (inactive)

Q: What about the GI50 (NCI-H460) of the same compound?
A: 16.9 µM (inactive)

Q: And the GI50 (COLO 205)?
A: 18.3 µM (inactive)

Q: With `C[C@]12[C@@H]3CC[C@H]1[C@@H](OC(=O)Nc1cc([N+](=O)[O-])cc([N+](=O)[O-])c1)C(=O)N2CC3` as the compound, how does the GI50 (SNB-75) read?
A: 19.6 µM (inactive)

Q: What about the GI50 (M14) of the same compound?
A: > 100 µM (inactive)

Q: What about the GI50 (ACHN) of the same compound?
A: > 100 µM (inactive)

Q: What about the GI50 (OVCAR-8) of the same compound?
A: > 100 µM (inactive)

Q: And the GI50 (PC-3)?
A: > 100 µM (inactive)

Q: What about the GI50 (MDA-MB-231) of the same compound?
A: > 100 µM (inactive)

Q: And the GI50 (TK-10)?
A: > 100 µM (inactive)

Q: And the GI50 (HL-60)?
A: 62.8 µM (inactive)

Q: And the GI50 (LOX IMVI)?
A: > 100 µM (inactive)

Q: And the GI50 (NCI-H23)?
A: > 100 µM (inactive)

Q: And the GI50 (MOLT-4)?
A: > 100 µM (inactive)

Q: And the GI50 (SW-620)?
A: > 100 µM (inactive)

Q: What about the GI50 (CAKI-1) of the same compound?
A: > 100 µM (inactive)

Q: What about the GI50 (UO-31) of the same compound?
A: > 100 µM (inactive)

Q: What about the GI50 (Hs-578T) of the same compound?
A: > 100 µM (inactive)

Q: What about the GI50 (MCF7) of the same compound?
A: > 100 µM (inactive)

Q: What about the GI50 (NCI-H460) of the same compound?
A: > 100 µM (inactive)

Q: What about the GI50 (COLO 205) of the same compound?
A: > 100 µM (inactive)

Q: Which results are given for `O=[N+]([O-])c1ccc(-c2csc3nc(-c4ccccc4)nn23)cc1`?
A: GI50 (SNB-75): 94.6 µM (inactive); GI50 (M14): > 100 µM (inactive); GI50 (ACHN): > 100 µM (inactive); GI50 (OVCAR-8): 47.5 µM (inactive); GI50 (PC-3): > 100 µM (inactive); GI50 (MDA-MB-231): 44 µM (inactive); GI50 (TK-10): > 100 µM (inactive); GI50 (HL-60): > 100 µM (inactive); GI50 (LOX IMVI): > 100 µM (inactive); GI50 (NCI-H23): > 100 µM (inactive); GI50 (MOLT-4): > 100 µM (inactive); GI50 (SW-620): > 100 µM (inactive); GI50 (OVCAR-3): > 100 µM (inactive); GI50 (CAKI-1): 72.8 µM (inactive); GI50 (UO-31): > 100 µM (inactive); GI50 (Hs-578T): > 100 µM (inactive); GI50 (MCF7): > 100 µM (inactive); GI50 (COLO 205): > 100 µM (inactive)
